One may read the inhibition as the drop in the measured response relative to a control, in per cent.

Sequence of Jak2 (human Jak2 kinase domain, amino acids 808-1132) (O60674 808-1132): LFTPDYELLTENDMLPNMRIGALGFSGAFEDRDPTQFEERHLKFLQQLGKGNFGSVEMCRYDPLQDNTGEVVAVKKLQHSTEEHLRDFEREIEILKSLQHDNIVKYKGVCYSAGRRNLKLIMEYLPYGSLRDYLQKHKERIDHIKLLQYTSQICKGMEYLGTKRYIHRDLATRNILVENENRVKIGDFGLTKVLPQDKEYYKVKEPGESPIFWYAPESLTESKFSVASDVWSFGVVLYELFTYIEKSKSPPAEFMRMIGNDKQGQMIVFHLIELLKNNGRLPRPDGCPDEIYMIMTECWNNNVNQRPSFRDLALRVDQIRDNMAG

The assay deals with Jak2 (human Jak2 kinase domain, amino acids 808-1132) (Homo sapiens (Human), UniProt O60674). Description: Jak2 inhibition assay (Omnia kinase assay). Particulars: read-out: Jak2 Enzyme (% inhibition at 1000 nM), Table 1; 1000 nM test compound. The format is biochemical. As to the method:
The assays described in Examples C, D, E and F for the determination of JAK1, JAK2, JAK3 and Tyk2 kinase activity, respectively, utilized the Omnia® Kinase fluorescence peptide substrate-based technology (Invitrogen). […] The reactions were therefore read at excitation 360 nm and emission was measured at 485 nm every 50 seconds for 45 minutes using a PerkinElmer EnVision Multilabel Plate Reader.
The final buffer conditions for each of the JAK1, JAK2, JAK3 and Tyk2 assays were as follows: 25 mM HEPES, pH 7.4, 10 mM MgCl2, 0.01% Triton X-100 and 1 mM DTT.
Two-μL aliquots of these were transferred to a fresh plate for a ten-fold intermediate dilution with assay buffer. Five-μL aliquots of the diluted compounds were then transferred to 20-μL of assay mixtures described in Examples C, D, E and F for a final concentration of DMSO of 2%. […] For each plate, percent of control (POC) values were calculated for each well according to the following equation:
where Xmax=Average Uninhibited Controls • Xmin=Average Background IC50's were estimated from the POC's using a standard 4-parameter logistic model:
where A=Minimum Y (Bottom Asymptote) • B=Maximum Y (Top Asymptote) • C=EC50 • D=Slope Factor • X=Compound Concentration (nM) • Y=POC
The IC50 is defined as the concentration of inhibitor at which the POC equals 50 for the fitted curve.
Compounds of Formula I were screened for their ability to inhibit Jak2 using the general enzyme inhibition assay method, in which the assay mixture contained 500 μM ATP, 10 μM Omnia® Y7 peptide (Catalog # IVGN KNZ3071C, Invitrogen Corporation, Carlsbad, Calif.) and 4 nM Jak2 in a total volume of 20 μL. Human Jak2 kinase domain comprising amino acids 808-1132 was purchased from Invitrogen Corporation, Carlsbad, Calif. (catalog # IVGN PV4210).
With `O=C(c1cnn2ccc(N3CCC[C@@H]3c3cncc(F)c3)nc12)N1CC[C@H](O)C1` [Example 128, (5-((R)-2-(5-fluoropyridin-3-yl)pyrrolidin-1-yl)pyrazolo[1,5-a]pyrimidin-3-yl)((S)-3-hydroxypyrrolidin-1-yl)methanone], the inhibition at 1 µM came out at 1.2%.

Turning to `O=C(N[C@H]1CC[C@H](O)C1)c1cnn2ccc(N3CCC[C@@H]3c3cncc(F)c3)nc12` [Example 105, 5-((R)-2-(5-fluoropyridin-3-yl)pyrrolidin-1-yl)-N-((1S,3S)-3-hydroxycyclopentyl)pyrazolo[1,5-a]pyrimidine-3-carboxamide], the inhibition at 1 µM came out at 18.7%.

As to `O=C(NC1CC1)c1cnn2ccc(N3CCC[C@@H]3c3cc(F)cc(OCCN4CCOCC4)c3)nc12` [Example 85, (R)—N-cyclopropyl-5-(2-(3-fluoro-5-(2-morpholinoethoxy)phenyl)pyrrolidin-1-yl)pyrazolo[1,5-a]pyrimidine-3-carboxamide], the inhibition at 1 µM stood at 6%.

As for `COCC(O)CNC(=O)c1cnn2ccc(N3CCCC3c3cncc(F)c3)nc12` [Example 119, 5-((R)-2-(5-fluoropyridin-3-yl)pyrrolidin-1-yl)-N-(2-hydroxy-3-methoxypropyl)pyrazolo[1,5-a]pyrimidine-3-carboxamide], the inhibition at 1 µM was found to be 1.7%.

Take `N#CCNC(=O)c1cnn2ccc(N3CCC[C@@H]3c3cc(F)ccc3F)nc12` [Example 39, (R)—N-(cyanomethyl)-5-(2-(2,5-difluorophenyl)pyrrolidin-1-yl)pyrazolo[1,5-a]pyrimidine-3-carboxamide]: the inhibition at 1 µM was 30.4%.

Turning to `O=C(NCC(F)CCl)c1cnn2ccc(N3CCC[C@@H]3c3cncc(F)c3)nc12` (stereo partly drawn) [Example 97, N-(3-chloro-2-fluoropropyl)-5-((R)-2-(5-fluoropyridin-3-yl)pyrrolidin-1-yl)pyrazolo[1,5-a]pyrimidine-3-carboxamide], the inhibition at 1 µM is 6.8%.

Regarding `CC(C)NC(=O)c1cnn2ccc(N3[C@H](CO)CC[C@@H]3c3cncc(F)c3)nc12` [Example 215, 5-((2R,5S)-2-(5-fluoropyridin-3-yl)-5-(hydroxymethyl)pyrrolidin-1-yl)-N-isopropylpyrazolo[1,5-a]pyrimidine-3-carboxamide], the inhibition at 1 µM amounted to 28.3%.

As for `C[C@@H](NC(=O)c1cnn2ccc(N3[C@H](CO)CC[C@@H]3c3cncc(F)c3)nc12)C(F)(F)F` [Example 212, 5-((2R,5S)-2-(5-fluoropyridin-3-yl)-5-(hydroxymethyl)pyrrolidin-1-yl)-N—((R)-1,1,1-trifluoropropan-2-yl)pyrazolo[1,5-a]pyrimidine-3-carboxamide], the inhibition at 1 µM worked out at 14.2%.

For the molecule `NCCCNC(=O)c1cnn2ccc(N3CCC[C@@H]3c3cc(F)c[nH]c3=O)nc12` [Example 142, (R)—N-(3-aminopropyl)-5-(2-(5-fluoro-2-oxo-1,2-dihydropyridin-3-yl)pyrrolidin-1-yl)pyrazolo[1,5-a]pyrimidine-3-carboxamide], the inhibition at 1 µM is -0.9%.

In the case of `COCCOc1ccc(F)cc1[C@H]1CCCN1c1ccn2ncc(C(=O)NC3CC3)c2n1` [Example 90, (R)—N-cyclopropyl-5-(2-(5-fluoro-2-(2-methoxyethoxy)phenyl)pyrrolidin-1-yl)pyrazolo[1,5-a]pyrimidine-3-carboxamide], the inhibition at 1 µM is 67.3%.

Turning to `COc1ncc(F)cc1[C@H]1CCCN1c1ccn2ncc(C(=O)N3CC(O)C3)c2n1` [Example 139, (R)-(5-(2-(5-fluoro-2-methoxypyridin-3-yl)pyrrolidin-1-yl)pyrazolo[1,5-a]pyrimidin-3-yl)(3-hydroxyazetidin-1-yl)methanone], the inhibition at 1 µM was -0.4%.

On to `CC(C)(C)NC(=O)c1cnn2ccc(N3CCC[C@@H]3c3cncc(F)c3)nc12` [Example 53, (R)—N-tert-butyl-5-(2-(5-fluoropyridin-3-yl)pyrrolidin-1-yl)pyrazolo[1,5-a]pyrimidine-3-carboxamide], for which the inhibition at 1 µM is 8.7%.

Consider `O=C(NCC(F)F)c1cnn2ccc(N3CCC[C@@H]3c3cncc(F)c3)nc12` [Example 134, (R)-N-(2,2-difluoroethyl)-5-(2-(5-fluoropyridin-3-yl)pyrrolidin-1-yl)pyrazolo[1,5-a]pyrimidine-3-carboxamide], for which the inhibition at 1 µM came out at 3.3%.

In the case of `CC(C)(C#N)NC(=O)c1cnn2ccc(N3CCC[C@@H]3c3cc(F)ccc3F)nc12` [Example 38, (R)—N-(2-cyanopropan-2-yl)-5-(2-(2,5-difluorophenyl)pyrrolidin-1-yl)pyrazolo[1,5-a]pyrimidine-3-carboxamide], the inhibition at 1 µM worked out at 18.2%.

As to `CC(C)[C@@H](CO)NC(=O)c1cnn2ccc(N3CCC[C@@H]3c3cc(F)ccc3F)nc12` [Example 179, 5-((R)-2-(2,5-difluorophenyl)pyrrolidin-1-yl)-N-((S)-1-hydroxy-3-methylbutan-2-yl)pyrazolo[1,5-a]pyrimidine-3-carboxamide], the inhibition at 1 µM is -0.2%.

For `O=C(NCCO)c1cnn2ccc(N3CCCC3c3cc(F)ccc3F)nc12` (stereo not shown) [Example 165, 5-(2-(2,5-difluorophenyl)pyrrolidin-1-yl)-N-(2-hydroxyethyl)pyrazolo[1,5-a]pyrimidine-3-carboxamide], the inhibition at 1 µM came out at 26.8%.

With `CC(C)(C)[C@@H](CO)NC(=O)c1cnn2ccc(N3CCC[C@@H]3c3cc(F)ccc3F)nc12` [Example 180, 5-((R)-2-(2,5-difluorophenyl)pyrrolidin-1-yl)-N-((S)-1-hydroxy-3,3-dimethylbutan-2-yl)pyrazolo[1,5-a]pyrimidine-3-carboxamide], the inhibition at 1 µM was -0.8%.

As to `O=C(c1cnn2ccc(N3CCC[C@@H]3c3cc(F)ccc3F)nc12)N1CC[C@@H](O)C1` [Example 19, (5-((R)-2-(2,5-difluorophenyl)pyrrolidin-1-yl)pyrazolo[1,5-a]pyrimidin-3-yl)((R)-3-hydroxypyrrolidin-1-yl)methanone], the inhibition at 1 µM is 3.4%.

Turning to `O=C(c1cnn2ccc(N3CCC[C@@H]3c3cc(F)ccc3F)nc12)N1CC[C@H](O)C1` [Example 18, (5-((R)-2-(2,5-difluorophenyl)pyrrolidin-1-yl)pyrazolo[1,5-a]pyrimidin-3-yl)((S)-3-hydroxypyrrolidin-1-yl)methanone], the inhibition at 1 µM is 2.8%.

Consider `COCC(C)NC(=O)c1cnn2ccc(N3CCCC3c3cncc(F)c3)nc12` [Example 118, 5-((R)-2-(5-fluoropyridin-3-yl)pyrrolidin-1-yl)-N-(1-methoxypropan-2-yl)pyrazolo[1,5-a]pyrimidine-3-carboxamide], for which the inhibition at 1 µM is -4.5%.

Consider `Cc1ncc(F)cc1[C@H]1CCCN1c1ccn2ncc(C(=O)NC3(CO)CC3)c2n1` [Example 193, (R)-5-(2-(5-fluoro-2-methylpyridin-3-yl)pyrrolidin-1-yl)-N-(1-(hydroxymethyl)cyclopropyl)-pyrazolo[1,5-a]pyrimidine-3-carboxamide], for which the inhibition at 1 µM came to 8.4%.

Turning to `NC(=O)c1cnn2ccc(N3CCC[C@@H]3c3cc(F)ccc3OCCN3CCOCC3)nc12` [Example 86, (R)-5-(2-(5-fluoro-2-(2-morpholinoethoxy)phenyl)pyrrolidin-1-yl)pyrazolo[1,5-a]pyrimidine-3-carboxamide], the inhibition at 1 µM is 17.3%.

Consider `CONC(=O)c1cnn2ccc(N3CCC[C@@H]3c3cccc(F)c3)nc12` [Example 75], for which the inhibition at 1 µM was found to be 15.1%.

`O=C(N[C@@H]1CCC[C@@H]1O)c1cnn2ccc(N3CCC[C@@H]3c3cncc(F)c3)nc12` [Example 135, 5-((R)-2-(5-fluoropyridin-3-yl)pyrrolidin-1-y1)-N-((1R,2S)-2-hydroxycyclopentyl)pyrazolo[1,5-a]pyrimidine-3-carboxainide]: the inhibition at 1 µM is -1%.

On to `O=C(NCCc1c[nH]cn1)c1cnn2ccc(N3CCC[C@@H]3c3cc(F)ccc3F)nc12` [Example 25, (R)—N-(2-(1H-imidazol-4-yl)ethyl)-5-(2-(2,5-difluorophenyl)pyrrolidin-1-yl)pyrazole [1,5-a]pyrimidine-3-carboxamide], for which the inhibition at 1 µM stood at 19.4%.

For the molecule `O=C(N[C@H]1CCC[C@H]1O)c1cnn2ccc(N3CCC[C@@H]3c3cncc(F)c3)nc12` [Example 104, 5-((R)-2-(5-fluoropyridin-3-yl)pyrrolidin-1-yl)-N-((1S,2R)-2-hydroxycyclopentyl)pyrazolo[1,5-a]pyrimidine-3-carboxamide], the inhibition at 1 µM worked out at 6.1%.

Regarding `O=C(O)CC1CCN(C(=O)c2cnn3ccc(N4CCC[C@@H]4c4cc(F)ccc4F)nc23)CC1` [Example 12, (R)-2-(1-(5-(2-(2,5-difluorophenyl)pyrrolidin-1-yl)pyrazolo[1,5-a]pyrimidine-3-carbonyl)piperidin-4-yl)acetic Acid], the inhibition at 1 µM was determined as 4.5%.

In the case of `CC(C)(C)NC(=O)c1cnn2ccc(N3CCC[C@@H]3c3cccc(F)c3)nc12` [Example 36, (R)—N-tert-butyl-5-(2-(3-fluorophenyl)pyrrolidin-1-yl)pyrazolo[1,5-a]pyrimidine-3-carboxamide], the inhibition at 1 µM was 22.2%.

Source of the values: patent publication US10251889B2, “Substituted pyrazolo[1,5-a]pyrimidine compounds as Trk kinase inhibitors” (Array BioPharma, Inc., priority 2009, dated 2019).
